Data from ChEMBL document CHEMBL2331317, “Synthesis and structure-activity relationships for 1-(4-(piperidin-1-ylsulfonyl)phenyl)pyrrolidin-2-ones as novel non-carboxylate inhibitors of the aldo-keto reductase enzyme AKR1C3” (Eur J Med Chem, 2013).
Substitutions are numbered along the chain they refer to. Calls of active or inactive are those of the source. The rule behind the calls is not given here.

Tests used:
[1] = target: T1, Aldo-keto reductase family 1 member C3 (Homo sapiens, UniProt P42330); assay: Inhibition of His-tagged human AKR1C3 expressed in Escherichia coli BL21 (DE3) assessed as inhibition of reduction of non-fluorescent ketone probe to fluorescent alcohol after 1 hr by competitive fluorescence assay
T1 sequence (P42330 whole entry): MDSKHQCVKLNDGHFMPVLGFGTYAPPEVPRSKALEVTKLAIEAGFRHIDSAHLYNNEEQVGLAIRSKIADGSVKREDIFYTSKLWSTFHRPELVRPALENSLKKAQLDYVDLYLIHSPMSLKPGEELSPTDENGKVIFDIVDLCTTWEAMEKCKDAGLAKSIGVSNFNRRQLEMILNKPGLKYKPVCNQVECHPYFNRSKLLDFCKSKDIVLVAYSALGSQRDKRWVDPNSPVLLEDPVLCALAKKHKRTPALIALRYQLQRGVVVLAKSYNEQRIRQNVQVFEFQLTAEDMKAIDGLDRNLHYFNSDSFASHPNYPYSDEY

[2] = target: T2, Aldo-keto reductase family 1 member C2 (Homo sapiens, UniProt P52895); assay: Inhibition of His-tagged human AKR1C2 expressed in Escherichia coli BL21 (DE3) assessed as inhibition of reduction of non-fluorescent ketone probe to fluorescent alcohol after 1 hr by competitive fluorescence assay
T2 sequence (P52895 whole entry): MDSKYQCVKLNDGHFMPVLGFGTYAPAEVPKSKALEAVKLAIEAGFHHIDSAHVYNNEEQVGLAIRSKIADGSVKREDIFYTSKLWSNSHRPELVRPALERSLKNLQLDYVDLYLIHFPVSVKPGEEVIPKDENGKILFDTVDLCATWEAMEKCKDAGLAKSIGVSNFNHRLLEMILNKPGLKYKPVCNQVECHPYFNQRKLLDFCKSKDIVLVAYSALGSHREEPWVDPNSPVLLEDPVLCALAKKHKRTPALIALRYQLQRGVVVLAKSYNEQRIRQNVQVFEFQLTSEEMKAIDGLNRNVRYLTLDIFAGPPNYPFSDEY

[3] = target: T3, Aldo-keto reductase family 1 member C4 (Homo sapiens, UniProt P17516); assay: Inhibition of His-tagged human AKR1C4 expressed in Escherichia coli BL21 (DE3) assessed as inhibition of reduction of non-fluorescent ketone probe to fluorescent alcohol after 1 hr by competitive fluorescence assay
T3 sequence (P17516 whole entry): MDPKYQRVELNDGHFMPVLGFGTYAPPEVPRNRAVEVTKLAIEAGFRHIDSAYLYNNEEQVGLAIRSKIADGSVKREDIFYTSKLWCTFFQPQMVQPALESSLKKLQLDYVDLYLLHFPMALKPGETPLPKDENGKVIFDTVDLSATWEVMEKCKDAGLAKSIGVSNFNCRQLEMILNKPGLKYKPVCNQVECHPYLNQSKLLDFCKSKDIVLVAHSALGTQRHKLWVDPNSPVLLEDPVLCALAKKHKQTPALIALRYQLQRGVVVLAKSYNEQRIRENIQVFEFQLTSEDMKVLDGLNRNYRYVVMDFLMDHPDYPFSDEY

[4] = target: T4, Aldo-keto reductase family 1 member C1 (Homo sapiens, UniProt Q04828); assay: Inhibition of His-tagged human AKR1C1 expressed in Escherichia coli BL21 (DE3) assessed as inhibition of reduction of non-fluorescent ketone probe to fluorescent alcohol after 1 hr by competitive fluorescence assay
T4 sequence (Q04828 whole entry): T2 sequence (P52895 whole entry) with V38T, H47R, V54L, S87C, M151V, H170R, L172Q

[5] = target: T5, Prostaglandin G/H synthase 2 (Homo sapiens, UniProt P35354); assay: Inhibition of COX2 (unknown origin)
T5 sequence (P35354 whole entry): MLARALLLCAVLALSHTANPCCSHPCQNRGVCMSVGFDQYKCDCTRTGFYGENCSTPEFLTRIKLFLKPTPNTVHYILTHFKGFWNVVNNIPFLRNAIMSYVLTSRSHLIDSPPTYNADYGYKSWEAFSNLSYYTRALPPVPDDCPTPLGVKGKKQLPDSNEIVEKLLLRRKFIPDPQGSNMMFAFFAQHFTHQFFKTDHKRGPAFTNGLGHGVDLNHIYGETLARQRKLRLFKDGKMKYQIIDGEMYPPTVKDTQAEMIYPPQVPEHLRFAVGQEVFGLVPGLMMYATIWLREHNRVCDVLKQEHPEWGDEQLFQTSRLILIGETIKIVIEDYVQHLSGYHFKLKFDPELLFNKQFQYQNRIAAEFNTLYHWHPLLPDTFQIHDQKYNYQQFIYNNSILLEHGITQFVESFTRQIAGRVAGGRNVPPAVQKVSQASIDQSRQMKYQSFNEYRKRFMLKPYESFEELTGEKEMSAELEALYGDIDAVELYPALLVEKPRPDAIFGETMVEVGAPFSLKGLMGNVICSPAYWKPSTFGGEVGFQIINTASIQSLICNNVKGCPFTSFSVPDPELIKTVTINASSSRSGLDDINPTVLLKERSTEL

[6] = target: T6, Prostaglandin G/H synthase 1 (Homo sapiens, UniProt P23219); assay: Inhibition of COX1 (unknown origin)
[7] = target: T6, Prostaglandin G/H synthase 1; assay: Inhibition of COX1 (unknown origin) at 10 uM
[8] = target: T7, Prostaglandin G/H synthase 2 (Homo sapiens) (UniProt P35354); assay: Inhibition of COX2 (unknown origin) at 10 uM
T7 sequence (whole entry): T5 sequence (P35354 whole entry)

[9] = target: T1, Aldo-keto reductase family 1 member C3; assay: Inhibition of recombinant AKR1C3 (unknown origin) overexpressed in human HCT116 cells assessed as inhibition of aerobic reduction of dinitrobenzamide PR-104A to its hydroxylamine metabolite by LC-MS/MS assay; assay type: cell-based, HCT-116
[10] = target: T4, Aldo-keto reductase family 1 member C1; assay: Inhibition of AKR1C1 (unknown origin)
[11] = target: T3, Aldo-keto reductase family 1 member C4; assay: Inhibition of AKR1C4 (unknown origin)

T6 sequence (P23219 whole entry): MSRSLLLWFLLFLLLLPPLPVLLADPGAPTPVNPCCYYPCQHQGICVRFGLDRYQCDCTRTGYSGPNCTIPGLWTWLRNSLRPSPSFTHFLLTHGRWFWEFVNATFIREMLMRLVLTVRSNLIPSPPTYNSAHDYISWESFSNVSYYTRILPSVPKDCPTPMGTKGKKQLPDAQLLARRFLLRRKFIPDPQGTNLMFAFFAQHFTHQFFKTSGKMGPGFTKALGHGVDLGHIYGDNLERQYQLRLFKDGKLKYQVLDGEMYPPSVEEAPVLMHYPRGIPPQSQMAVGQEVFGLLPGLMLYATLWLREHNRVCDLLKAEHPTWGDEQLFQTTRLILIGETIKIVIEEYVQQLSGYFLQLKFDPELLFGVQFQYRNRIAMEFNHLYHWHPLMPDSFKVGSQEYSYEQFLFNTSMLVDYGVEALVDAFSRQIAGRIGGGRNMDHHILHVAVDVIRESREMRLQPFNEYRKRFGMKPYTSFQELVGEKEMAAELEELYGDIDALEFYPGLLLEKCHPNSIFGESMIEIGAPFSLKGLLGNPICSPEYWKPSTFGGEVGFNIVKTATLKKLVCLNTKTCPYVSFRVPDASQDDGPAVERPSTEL

Row | SMILES | IC50 [1] [µM] | IC50 [2] [µM] | IC50 [3] [µM] | IC50 [4] [µM] | other results
1 | Cc1cc(S(=O)(=O)N2CCCCC2C)c(C)cc1N1CCCC1=O (stereo unspecified) | > 30 |  |  |  | 
2 | CC1CCCCN1S(=O)(=O)c1cccc(N2CCCC2=O)c1 (stereo unspecified) | > 30 |  |  |  | 
3 | CC1CCCCN1S(=O)(=O)c1ccc(N2CCCS2(=O)=O)cc1 (stereo unspecified) | 5.22 | > 30 | > 30 | > 30 | 
4 | CC1CCCCN1S(=O)(=O)c1ccc(N2CCCC2=O)cn1 (stereo unspecified) | 2.77 | > 30 | > 30 | > 30 | 
5 | Cc1ccc(Cl)c(Nc2ccccc2C(=O)O)c1Cl [MECLOFENAMIC ACID] |  |  |  |  | IC50 [5]: 0.7 µM; IC50 [6]: 0.22 µM
6 | O=C1CCCN1c1ccc(S(=O)(=O)N2CCCCC2)cc1 | 0.14 | > 30 | > 30 | > 30 | inhibition [7]: inactive; inhibition [8]: inactive
7 | CC1CCCCN1C(=O)c1ccc(N2CCCC2=O)cc1 (stereo unspecified) | > 30 |  |  |  | 
8 | CC1CCCN(S(=O)(=O)c2ccc(N3CCCC3=O)cc2)C1 (stereo unspecified) | 0.084 | > 30 | > 30 | > 30 | IC50 [9]: 0.015 µM
9 | CC1CCCCN1S(=O)(=O)c1ccc(N2CCCC2=O)cc1 (racemic) |  | > 30 | > 30 | > 30 | inhibition [7]: inactive; inhibition [8]: inactive
10 | O=C1CCCN1c1ccc(S(=O)(=O)N2CCc3ccccc3C2)cc1 | 0.052 |  |  |  | 
11 | O=C1CCCN1c1ccc(S(=O)(=O)N2CCC[C@H](O)C2)cc1 | 8.98 | > 30 | > 30 | > 30 | 
12 | CC1CCCCN1S(=O)(=O)c1ccccc1N1CCCC1=O (stereo unspecified) | > 30 |  |  |  | 
13 | O=C(O)c1ccccc1Nc1cccc(C(F)(F)F)c1 [FLUFENAMIC ACID] |  |  |  |  | IC50 [6]: 3 µM
14 | CC1CCCCN1S(=O)(=O)c1ccc(NC(=O)C(C)(C)C)cc1 (stereo unspecified) | 5.94 | > 30 | > 30 | > 30 | 
15 | C[C@H]1CCC[C@H](C)N1S(=O)(=O)c1ccc(N2CCCC2=O)cc1 | 0.056 | > 30 | > 30 | > 30 | IC50 [9]: 0.022 µM
16 | Cc1cccc(Nc2ccccc2C(=O)O)c1C [MEFENAMIC ACID] |  |  |  |  | IC50 [5]: 2.9 µM; IC50 [10]: 3.91 µM; IC50 [6]: 25 µM; IC50 [11]: > 100 µM
17 | O=C1CCCN1c1ccc(S(=O)(=O)N2CCC[C@@H](O)C2)cc1 | 1.55 | > 30 | > 30 | > 30 | 
18 | CC(C)C(=O)Nc1ccc(S(=O)(=O)N2CCCCC2C)cc1 (stereo unspecified) | 12.5 |  |  |  | 
19 | CC1CCCCN1S(=O)(=O)c1ccc(N2C(=O)c3ccccc3C2=O)cc1 (stereo unspecified) | > 30 |  |  |  | 
20 | Cc1cc(S(=O)(=O)N2CCCCC2C)ccc1N1CCCC1=O (stereo unspecified) | 10.2 |  |  |  | 
21 | O=C1CCCN1c1ccc(S(=O)(=O)N2CCCC2)cc1 | > 30 |  |  |  | 
22 | CC1CCCCN1S(=O)(=O)c1ccc(N2C(=O)CCC2=O)cc1 (stereo unspecified) | > 30 |  |  |  | 
23 | CC1CCN(S(=O)(=O)c2ccc(N3CCCC3=O)cc2)CC1 | 0.2 | > 30 | > 30 | > 30 | 
24 | C[C@@H]1CCCCN1S(=O)(=O)c1ccc(N2CCCC2=O)cc1 |  | > 30 | > 30 | > 30 | 
25 | CC1CCCCN1S(=O)(=O)c1ccc(N2CCCCC2=O)cc1 (stereo unspecified) | 3.77 | > 30 | > 30 | > 30 | 
26 | C[C@@H]1CN(S(=O)(=O)c2ccc(N3CCCC3=O)cc2)C[C@H](C)N1 | 21.2 |  |  |  | 
27 | CC1CCCCN1S(=O)(=O)c1ccc(N2CCC2=O)cc1 (stereo unspecified) | 5.61 | > 30 | > 30 | > 30 | 
28 | CC1CCCCN1Cc1ccc(N2CCCC2=O)cc1 (stereo unspecified) | > 30 |  |  |  | 
29 | O=C1CCCN1c1ccc(S(=O)(=O)N2CCOCC2)cc1 | > 30 |  |  |  | 
